Laboratory results: article PMC8373216, “Development and Preclinical Evaluation of New Inhaled Lipoglycopeptides for the Treatment of Persistent Pulmonary Methicillin-Resistant Staphylococcus aureus Infections” (Antimicrobial Agents and Chemotherapy, 2021)
Values after ≈ are worked out from the molar mass of the structure shown. Where two headings read alike, the source gives them in different places.

Key:
Streptococcus mitis = test: Expanded panel broth microdilution MIC/MBC; format: cell-based; details: for MIC: Streptococcus mitis
[1] = system: MRSA ATCC BAA 1556 (USA300); test: In-house broth microdilution MIC screening; format: cell-based, Staphylococcus aureus; details: Staphylococcus aureus, read-out: MIC Value, MRSA ATCC BAA 1556
Clostridium. perfringens = test: microbe, parasite or virus in culture; format: cell-based
[2] = system: Streptococcus constellatus; test: Expanded panel broth microdilution MIC; format: cell-based
MSSA ATCC 29213 = test: In-house broth microdilution MIC screening; format: cell-based; details: Staphylococcus aureus, read-out: MIC Value, MSSA ATCC 29213
Streptococcus oralis = test: Expanded panel broth microdilution MIC; format: cell-based
Clostridioides difficile = test: Expanded panel broth microdilution MIC; format: cell-based
[3] = system: Streptococcus dysgalactiae; test: Expanded panel broth microdilution MIC/MBC; format: cell-based; details: for MIC: Streptococcus dysgalactiae
Streptococcus anginosus = test: Expanded panel broth microdilution MIC/MBC; format: cell-based; details: for MIC: Streptococcus anginosus
[4] = system: Staphylococcus epidermidis; test: Expanded panel broth microdilution MIC/MBC; format: cell-based; details: for MIC: Staphylococcus epidermidis
Staphylococcus hominis = test: Expanded panel broth microdilution MIC; format: cell-based
S. aureus = test: Expanded panel broth microdilution MIC/MBC; details: for MIC: Staphylococcus aureus
Streptococcus pneumoniae = test: Expanded panel broth microdilution MIC/MBC; format: cell-based

CCCCCCCCCCNCCN[C@@]1(C)C[C@H](O[C@H]2[C@H](Oc3c4cc5cc3Oc3ccc(cc3Cl)[C@@H](O)[C@@H](NC(=O)[C@@H](CC(C)C)NC)C(=O)N[C@@H](CC(N)=O)C(=O)N[C@H]5C(=O)N[C@H]3C(=O)N[C@H](C(=O)N[C@H](C(=O)O)c5cc(O)c(CNCP(=O)(O)O)c(O)c5-c5cc3ccc5O)[C@H](O)c3ccc(c(Cl)c3)O4)O[C@H](CO)[C@@H](O)[C@@H]2O)O[C@@H](C)[C@H]1O [Telavancin, telavancin]
MIC:MBC (Streptococcus mitis; S. mitis MGS, MBC on one organism): 1
MIC (Streptococcus mitis): 0.03 µg/mL (≈ 0.0171 µM)
MIC (Streptococcus mitis; ATCC49456): 0.06 µg/mL (≈ 0.0342 µM)
MIC (Streptococcus mitis; read-out: MIC (median)): 0.05 µg/mL (≈ 0.0285 µM)
MIC [1]: 0.063 µg/mL (≈ 0.0359 µM)
MIC (Clostridium. perfringens): 0.015 µg/mL (≈ 0.00854 µM)
MIC (Clostridium. perfringens; ATCC13124, read-out: MIC): 0.015 µg/mL (≈ 0.00854 µM)
MIC ([2]; S. constellatus AGS, 1 isolate): 0.03 µg/mL (≈ 0.0171 µM)
MIC ([2]; Streptococcus constellatus): 0.03 µg/mL (≈ 0.0171 µM)
MIC (MSSA ATCC 29213): 0.063 µg/mL (≈ 0.0359 µM)
MIC (Streptococcus oralis; S. oralis MGS, 1 isolate): 0.06 µg/mL (≈ 0.0342 µM)
MIC (Streptococcus oralis; Streptococcus oralis): 0.06 µg/mL (≈ 0.0342 µM)
MIC (Clostridioides difficile; ATCCBAA1805, C. difficile ATCC BAA-1805, ribo 027): 0.12 µg/mL (≈ 0.0684 µM)
MIC (Clostridioides difficile; ATCCBAA1870, C. difficile ATCC BAA-1870, NAP1;ribo 027): 0.12 µg/mL (≈ 0.0684 µM)
MIC (Clostridioides difficile; C. difficile ATTC 700057, toxAB-): 0.12 µg/mL (≈ 0.0684 µM)
MIC (Clostridioides difficile; C. difficile NAP1;ribo 027, 1 isolate): 0.12 µg/mL (≈ 0.0684 µM)
MIC (Clostridioides difficile; C. difficile ribo 027, 1 isolate): 0.12 µg/mL (≈ 0.0684 µM)
MIC (Clostridioides difficile; C. difficile toxAB-, 1 isolate): 0.12 µg/mL (≈ 0.0684 µM)
MIC:MBC ([3]; S. dysgalactiae, MBC on one organism): 4
MIC ([3]; S. dysgalactiae MMX 5121): 0.12 µg/mL (≈ 0.0684 µM)
MIC ([3]; S. dysgalactiae MMX 5123): 0.25 µg/mL (≈ 0.142 µM)
MIC ([3]; S. dysgalactiae MMX 5124): 0.03 µg/mL (≈ 0.0171 µM)
MIC ([3]; read-out: MIC (median), S. dysgalactiae, 3 isolates): 0.12 µg/mL (≈ 0.0684 µM)
MIC:MBC (Streptococcus anginosus; S. anginosus AGS): >8
MIC (Streptococcus anginosus): 0.06 µg/mL (≈ 0.0342 µM)
MIC (Streptococcus anginosus; ATCC33397): 0.06 µg/mL (≈ 0.0342 µM)
MIC:MBC ([4]; S. epidermidis MRSE, MBC on one organism): 1
MIC ([4]; ATCC49134, S. epidermidis ATCC 49134, MSSE): 0.12 µg/mL (≈ 0.0684 µM)
MIC ([4]; MRSE, S. epidermidis MMX 762, MRSE): 0.12 µg/mL (≈ 0.0684 µM)
MIC ([4]; MRSE, S. epidermidis MMX 5145, MRSE): 0.03 µg/mL (≈ 0.0171 µM)
MIC ([4]; MRSE, read-out: MIC (median), S. epidermidis MRSE, 2 isolates): 0.12 µg/mL (≈ 0.0684 µM)
MIC ([4]; S. epidermidis MSSE, 1 isolate): 0.12 µg/mL (≈ 0.0684 µM)
MIC (Staphylococcus hominis): 0.06 µg/mL (≈ 0.0342 µM)
MIC (Staphylococcus hominis; ATCC27844): 0.06 µg/mL (≈ 0.0342 µM)
MIC:MBC (S. aureus; S. aureus MRSA, MBC median of n = 5): 1
MIC:MBC (S. aureus; S. aureus MSSA, MBC on one organism): 1
MIC:MBC (S. aureus; S. aureus VISA, MBC median of n = 2): 1
MIC:MBC (S. aureus; S. aureus hVISA, MBC on one organism): 1
MIC (S. aureus; ATCC13709 / MSSA, S. aureus ATCC 13709, MSSA): 0.12 µg/mL (≈ 0.0684 µM)
MIC (S. aureus; ATCC29213 / MSSA, S. aureus ATCC 29213, MSSA): 0.06 µg/mL (≈ 0.0342 µM)
MIC (S. aureus; ATCC43300 / MRSA, S. aureus ATCC 43300, MRSA): 0.06 µg/mL (≈ 0.0342 µM)
MIC (S. aureus; ATCCBAA1556|MRSA|USA300, S. aureus ATCC BAA-1556, MRSA, USA300 (expanded panel)): 0.06 µg/mL (≈ 0.0342 µM)
MIC (S. aureus; ATCCBAA1756|MRSA|NRS384|USA300, S. aureus NRS 384, ATCC BAA-1756, MRSA, USA300): 0.06 µg/mL (≈ 0.0342 µM)
MIC (S. aureus; MRSA / NRS123 / USA400, S. aureus NRS123, MRSA, USA400): 0.06 µg/mL (≈ 0.0342 µM)
MIC (S. aureus; MRSA / NRS725 / USA300, S. aureus NRS725, MRSA, USA300): 0.06 µg/mL (≈ 0.0342 µM)
MIC (S. aureus; MRSA / USA300, S. aureus MMX 3982, MRSA, USA300): 0.06 µg/mL (≈ 0.0342 µM)
MIC (S. aureus; MRSA, S. aureus MMX 5715, MRSA): 0.06 µg/mL (≈ 0.0342 µM)
MIC (S. aureus; MRSA, S. aureus MMX 7899, MRSA): 0.06 µg/mL (≈ 0.0342 µM)
MIC (S. aureus; MRSA, S. aureus MMX 7900, MRSA): 0.06 µg/mL (≈ 0.0342 µM)
MIC (S. aureus; MRSA, S. aureus MMX 7901, MRSA): 0.03 µg/mL (≈ 0.0171 µM)
MIC (S. aureus; MRSA, S. aureus MMX 7902, MRSA): 0.06 µg/mL (≈ 0.0342 µM)
MIC (S. aureus; MRSA, S. aureus MMX 7903, MRSA): 0.06 µg/mL (≈ 0.0342 µM)
MIC (S. aureus; MRSA, read-out: MIC (median), S. aureus MRSA, 12 isolates): 0.06 µg/mL (≈ 0.0342 µM)
MIC (S. aureus; MSSA, S. aureus MMX 7907, MSSA): 0.06 µg/mL (≈ 0.0342 µM)
MIC (S. aureus; MSSA, S. aureus MMX 7908, MSSA): 0.12 µg/mL (≈ 0.0684 µM)
MIC (S. aureus; MSSA, read-out: MIC (median), S. aureus MSSA, 4 isolates): 0.09 µg/mL (≈ 0.0513 µM)
MIC (S. aureus; NRS1 / VISA, S. aureus NRS1, VISA, Mu50): 0.5 µg/mL (≈ 0.285 µM)
MIC (S. aureus; NRS2, S. aureus NRS2, hVISA;Mu3): 0.12 µg/mL (≈ 0.0684 µM)
MIC (S. aureus; NRS4 / VISA, S. aureus NRS4, VISA): 0.25 µg/mL (≈ 0.142 µM)
MIC (S. aureus; NRS13 / VISA, S. aureus NRS13, VISA): 0.12 µg/mL (≈ 0.0684 µM)
MIC (S. aureus; NRS22 / VISA, S. aureus NRS22, VISA): 0.5 µg/mL (≈ 0.285 µM)
MIC (S. aureus; NRS23, S. aureus NRS23, hVISA): 0.25 µg/mL (≈ 0.142 µM)
MIC (S. aureus; NRS52 / VISA, S. aureus NRS52, VISA): 0.25 µg/mL (≈ 0.142 µM)
MIC (S. aureus; VISA, read-out: MIC (median), S. aureus VISA, 5 isolates): 0.25 µg/mL (≈ 0.142 µM)
MIC (S. aureus; read-out: MIC (median), S. aureus hVISA, 2 isolates): 0.19 µg/mL (≈ 0.108 µM)
MIC:MBC (Streptococcus pneumoniae; S. pneumoniae PISP, MBC on one organism): 1
MIC (Streptococcus pneumoniae; S. pneumoniae PRSP, 1 isolate): 0.03 µg/mL (≈ 0.0171 µM)
MIC (Streptococcus pneumoniae; Streptococcus pneumoniae): 0.015 µg/mL (≈ 0.00854 µM)
MIC (Streptococcus pneumoniae; Streptococcus pneumoniae, ATCC49619): 0.03 µg/mL (≈ 0.0171 µM)
MIC (Streptococcus pneumoniae; Streptococcus pneumoniae, PRSP): 0.03 µg/mL (≈ 0.0171 µM)
MIC (Streptococcus pneumoniae; Streptococcus pneumoniae, read-out: MIC (median)): 0.02 µg/mL (≈ 0.0114 µM)
